This is an account of results in PubChem BioAssay AID248 (DTP/NCI, 2004).

Where “and” joins values, the source holds several entries; their conditions need not be identical. Identical values can stand only once. Toxic doses and inconclusive results are not listed.

This assay deals with L1210 leukemia ip in BDF1 mice, survival T/C. The assay can be described thus: NCI In Vivo Anticancer Drug Screen. Data for tumor model L1210 Leukemia (intraperitoneal) in B6D2F1 (BDF1) mice. The note with it: higher = longer survival. The procedure, abridged:
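Transplanted-tumor mice were given test agent; controls received vehicle only. Survival readings from the two groups were divided (treated over control).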

The mark [1] stands for this setting: endpoint: mean survival time, dose: 100.0 mg/kg/injection, schedule: Q01DX009 (ip), vehicle: saline with Tween-80.
The mark [2] stands for this setting: endpoint: mean survival time, dose: 100.0 mg/kg/injection, schedule: Q04DX003 (ip), vehicle: Klucel (hydroxypropylcellulose) (HPC).
The mark [3] stands for this setting: endpoint: mean survival time, dose: 200.0 mg/kg/injection, schedule: Q04DX003 (ip), vehicle: Klucel (hydroxypropylcellulose) (HPC).
[4] abbreviates: endpoint: mean survival time, dose: 12.5 mg/kg/injection, schedule: Q04DX003 (ip), vehicle: Klucel (hydroxypropylcellulose) (HPC).
[5] abbreviates: endpoint: mean survival time, dose: 100.0 mg/kg/injection, schedule: Q01DX009 (ip), vehicle: Klucel (hydroxypropylcellulose) (HPC).
[6] abbreviates: endpoint: mean survival time, dose: 200.0 mg/kg/injection, schedule: Q01DX009 (ip), vehicle: Klucel (hydroxypropylcellulose) (HPC).
Where [7] appears, read: endpoint: mean survival time, dose: 400.0 mg/kg/injection, schedule: Q01DX009 (ip), vehicle: Klucel (hydroxypropylcellulose) (HPC).
[8] abbreviates: endpoint: mean survival time, dose: 400.0 mg/kg/injection, schedule: Q04DX003 (ip), vehicle: Klucel (hydroxypropylcellulose) (HPC).
Setting [9] is: endpoint: mean survival time, dose: 100.0 mg/kg/injection, schedule: Q01DX001 (ip), vehicle: carboxymethylcellulose (CMC).
Where [10] appears, read: endpoint: mean survival time, dose: 200.0 mg/kg/injection, schedule: Q01DX001 (ip), vehicle: carboxymethylcellulose (CMC).
Setting [11] is: endpoint: mean survival time, dose: 400.0 mg/kg/injection, schedule: Q01DX001 (ip), vehicle: carboxymethylcellulose (CMC).
The mark [12] stands for this setting: endpoint: mean survival time, dose: 200.0 mg/kg/injection, schedule: Q01DX009 (ip), vehicle: saline with Tween-80.
The mark [13] stands for this setting: endpoint: mean survival time, dose: 400.0 mg/kg/injection, schedule: Q01DX009 (ip), vehicle: saline with Tween-80.
Setting [14] is: endpoint: mean survival time, dose: 50.0 mg/kg/injection, schedule: Q01DX001 (ip), vehicle: saline.
Where [15] appears, read: endpoint: mean survival time, dose: 100.0 mg/kg/injection, schedule: Q01DX001 (ip), vehicle: saline.

For the molecule `O=C(O)CCCCc1ccc(CCCCC(=O)O)cc1`, the T/C by setting is: (endpoint: mean survival time, dose: 50.0 mg/kg/injection, schedule: Q01DX009 (ip), vehicle: saline with Tween-80) 96 % of control; under setting [1], 106 % of control; under setting [2], 97 % of control; under setting [3], 104 % of control.
As to `COC(=O)Nc1cccc(C)c1C`, the T/C (endpoint: mean survival time, dose: 100.0 mg/kg/injection, schedule: Q04DX003 (ip), vehicle: other) was 103 % of control; the T/C (endpoint: mean survival time, dose: 200.0 mg/kg/injection, schedule: Q04DX003 (ip), vehicle: other) was 102 % of control; the T/C (endpoint: mean survival time, dose: 400.0 mg/kg/injection, schedule: Q04DX003 (ip), vehicle: other) is 108 % of control.
As to `CCCN(C)N=Nc1ccccc1C(=O)O`, the T/C was 106 % of control and 113 % of control and 124 % of control (endpoint: mean survival time, dose: 12.5 mg/kg/injection, schedule: Q01DX009 (ip), vehicle: Klucel (hydroxypropylcellulose) (HPC)); 105 % of control under setting [4]; 114 % of control and 116 % of control (endpoint: mean survival time, dose: 25.0 mg/kg/injection, schedule: Q01DX009 (ip), vehicle: Klucel (hydroxypropylcellulose) (HPC)); 118 % of control (endpoint: mean survival time, dose: 25.0 mg/kg/injection, schedule: Q04DX003 (ip), vehicle: Klucel (hydroxypropylcellulose) (HPC)); 105 % of control (endpoint: mean survival time, dose: 50.0 mg/kg/injection, schedule: Q04DX003 (ip), vehicle: Klucel (hydroxypropylcellulose) (HPC)); 87 % of control (endpoint: mean survival time, dose: 75.0 mg/kg/injection, schedule: Q01DX009 (ip), vehicle: Klucel (hydroxypropylcellulose) (HPC)). Besides, under setting [2], the T/C is 113 % of control.
As to `Cc1cc(NCCCCCCCNc2cc(C)nc3cc(N)ccc23)c2ccc(N)cc2n1`, the T/C reads like this: (endpoint: median survival time, dose: 1.56 mg/kg/injection, schedule: Q01DX009 (ip), vehicle: water) 123 % of control; (endpoint: median survival time, dose: 6.25 mg/kg/injection, schedule: Q01DX009 (ip), vehicle: water) 154 % of control; (endpoint: median survival time, dose: 12.5 mg/kg/injection, schedule: Q01DX009 (ip), vehicle: water) 194 % of control; (endpoint: median survival time, dose: 25.0 mg/kg/injection, schedule: Q01DX009 (ip), vehicle: water) 116 % of control.
For `O=C(NNC(=O)OCCCl)OCCCl`, the T/C (endpoint: mean survival time, dose: 111.0 mg/kg/injection, schedule: Q01DX Z (ip), vehicle: methylcellulose (MC)) was 107 % of control; the T/C (endpoint: mean survival time, dose: 166.0 mg/kg/injection, schedule: Q01DX Z (ip), vehicle: methylcellulose (MC)) was 92 % of control; the T/C (endpoint: mean survival time, dose: 250.0 mg/kg/injection, schedule: Q01DX Z (ip), vehicle: methylcellulose (MC)) is 107 % of control.
Take `C=CCOCC(O)CN(C)c1ccccc1` (stereo not given): the T/C is 101 % of control under setting [5]; 96 % of control under setting [2]; 112 % of control under setting [6]; 95 % of control under setting [3]; 91 % of control under setting [7]; 93 % of control under setting [8].
Regarding `Cc1ccc(C)c([N+](=O)[O-])c1C(=O)O`, the T/C is 104 % of control under setting [9], 96 % of control under setting [10] and 109 % of control under setting [11].
For the molecule `Cc1ncc(COCc2ccccc2)c(CO)c1OCc1ccccc1`, the T/C reads like this: under setting [9], 92 % of control; under setting [10], 94 % of control; under setting [11], 94 % of control.
`O=C(CSc1cc(Cl)c(Cl)cc1Cl)Nc1ccc(Cl)cc1Cl`: the T/C is 87 % of control (endpoint: mean survival time, dose: 100.0 mg/kg/injection, schedule: Q01DX001 (ip), vehicle: saline with Tween-80); 93 % of control (endpoint: mean survival time, dose: 200.0 mg/kg/injection, schedule: Q01DX001 (ip), vehicle: saline with Tween-80); 93 % of control (endpoint: mean survival time, dose: 400.0 mg/kg/injection, schedule: Q01DX001 (ip), vehicle: saline with Tween-80).
In the case of `CCCC(=O)OC(C(=O)OCC)c1ccccc1` (stereo not given), the T/C reads like this: under setting [1], 98 % of control; under setting [12], 106 % of control; under setting [13], 96 % of control.
In the case of `CC1CC(C)/C(=N/N(C)C)C(C(O)CC2CC(=O)NC(=O)C2)C1` (stereo not given), the T/C was 106 % of control (endpoint: mean survival time, dose: 77.8 mg/kg/injection, schedule: Q01DX Z (ip), vehicle: carboxymethylcellulose (CMC)); 105 % of control (endpoint: mean survival time, dose: 116.7 mg/kg/injection, schedule: Q01DX Z (ip), vehicle: carboxymethylcellulose (CMC)); 119 % of control (endpoint: mean survival time, dose: 262.5 mg/kg/injection, schedule: Q01DX Z (ip), vehicle: carboxymethylcellulose (CMC)).
Take `O=C(NCc1ccc([N+](=O)[O-])cc1)OCc1ccccc1`: the T/C under setting [5] was 103 % of control; the T/C under setting [2] was 102 % of control; the T/C under setting [6] was 102 % of control; the T/C under setting [3] was 104 % of control; the T/C under setting [7] is 94 % of control; the T/C under setting [8] is 96 % of control.
For `COc1cc2cc3c4cc(OC)c(OC)cc4cc[n+]3c(/C=C/c3ccccc3)c2cc1OC`, the T/C by setting is: (endpoint: mean survival time, dose: 100.0 mg/kg/injection, schedule: Q04DX003 (ip), vehicle: carboxymethylcellulose (CMC)) 102 % of control; (endpoint: mean survival time, dose: 200.0 mg/kg/injection, schedule: Q04DX003 (ip), vehicle: carboxymethylcellulose (CMC)) 110 % of control; (endpoint: mean survival time, dose: 400.0 mg/kg/injection, schedule: Q04DX003 (ip), vehicle: carboxymethylcellulose (CMC)) 100 % of control.
As to `CC(/C=C(\C)N1CCCC1)=[N+]1CCCC1`, the T/C (endpoint: mean survival time, dose: 0.78 mg/kg/injection, schedule: Q01DX009 (ip), vehicle: saline) was 101 % of control; the T/C (endpoint: mean survival time, dose: 1.56 mg/kg/injection, schedule: Q01DX009 (ip), vehicle: saline) is 101 % of control; the T/C (endpoint: mean survival time, dose: 1.56 mg/kg/injection, schedule: Q04DX003 (ip), vehicle: saline) is 94 % of control and 108 % of control; the T/C (endpoint: mean survival time, dose: 3.12 mg/kg/injection, schedule: Q04DX003 (ip), vehicle: saline) was 112 % of control and 89 % of control; the T/C (endpoint: mean survival time, dose: 6.25 mg/kg/injection, schedule: Q04DX003 (ip), vehicle: saline) is 110 % of control.
With `N#Cc1ccc(CCc2ccc(Cl)cc2)cc1`, the T/C runs as follows: under setting [14], 94 % of control; under setting [15], 95 % of control; (endpoint: mean survival time, dose: 200.0 mg/kg/injection, schedule: Q01DX001 (ip), vehicle: saline) 101 % of control; (endpoint: mean survival time, dose: 400.0 mg/kg/injection, schedule: Q01DX001 (ip), vehicle: saline) 92 % of control.
As for `COc1ccc(-c2cc(C(=O)O)c3ccc(C)cc3n2)cc1`, the T/C reads like this: under setting [1], 103 % of control; under setting [12], 95 % of control; under setting [13], 96 % of control.
`O=C1NC(c2ccccc2)(c2ccccc2)C(=O)N1CNc1ccc(Br)cc1`: the T/C was 89 % of control under setting [2], 89 % of control under setting [3] and 92 % of control under setting [8].
As to `CCC(C)N(C(C)=O)C(C)CC` (stereo not given), the T/C is, setting by setting: (endpoint: mean survival time, dose: 25.0 mg/kg/injection, schedule: Q01DX001 (ip), vehicle: saline) 107 % of control; under setting [14], 97 % of control; under setting [15], 100 % of control.
Turning to `CC(=O)[O][Hg][c]1cc(C)c(O)c([N+](=O)[O-])c1`, the T/C by setting is: (endpoint: mean survival time, dose: 1.56 mg/kg/injection, schedule: Q04DX003 (ip), vehicle: Klucel (hydroxypropylcellulose) (HPC)) 105 % of control; (endpoint: mean survival time, dose: 3.12 mg/kg/injection, schedule: Q01DX009 (ip), vehicle: Klucel (hydroxypropylcellulose) (HPC)) 95 % of control; (endpoint: mean survival time, dose: 3.12 mg/kg/injection, schedule: Q04DX003 (ip), vehicle: Klucel (hydroxypropylcellulose) (HPC)) 115 % of control; (endpoint: mean survival time, dose: 6.25 mg/kg/injection, schedule: Q01DX009 (ip), vehicle: Klucel (hydroxypropylcellulose) (HPC)) 96 % of control; (endpoint: mean survival time, dose: 6.25 mg/kg/injection, schedule: Q04DX003 (ip), vehicle: Klucel (hydroxypropylcellulose) (HPC)) 117 % of control; under setting [4], 109 % of control.
